The source made the active and inactive calls. No cut-off for these calls is given here.
Experiments:
[1] = target: T1, Serine/threonine-protein kinase LATS1 (Homo sapiens) (UniProt O95835); experiment: Activation of LATS1 in human SUM159 cells assessed as increase in YAP phosphorylation at Ser397 at 0.25 to 1.5 uM measured after 24 to 48 hrs by immunoblotting analysis; format: cell-based
T1 sequence (whole entry): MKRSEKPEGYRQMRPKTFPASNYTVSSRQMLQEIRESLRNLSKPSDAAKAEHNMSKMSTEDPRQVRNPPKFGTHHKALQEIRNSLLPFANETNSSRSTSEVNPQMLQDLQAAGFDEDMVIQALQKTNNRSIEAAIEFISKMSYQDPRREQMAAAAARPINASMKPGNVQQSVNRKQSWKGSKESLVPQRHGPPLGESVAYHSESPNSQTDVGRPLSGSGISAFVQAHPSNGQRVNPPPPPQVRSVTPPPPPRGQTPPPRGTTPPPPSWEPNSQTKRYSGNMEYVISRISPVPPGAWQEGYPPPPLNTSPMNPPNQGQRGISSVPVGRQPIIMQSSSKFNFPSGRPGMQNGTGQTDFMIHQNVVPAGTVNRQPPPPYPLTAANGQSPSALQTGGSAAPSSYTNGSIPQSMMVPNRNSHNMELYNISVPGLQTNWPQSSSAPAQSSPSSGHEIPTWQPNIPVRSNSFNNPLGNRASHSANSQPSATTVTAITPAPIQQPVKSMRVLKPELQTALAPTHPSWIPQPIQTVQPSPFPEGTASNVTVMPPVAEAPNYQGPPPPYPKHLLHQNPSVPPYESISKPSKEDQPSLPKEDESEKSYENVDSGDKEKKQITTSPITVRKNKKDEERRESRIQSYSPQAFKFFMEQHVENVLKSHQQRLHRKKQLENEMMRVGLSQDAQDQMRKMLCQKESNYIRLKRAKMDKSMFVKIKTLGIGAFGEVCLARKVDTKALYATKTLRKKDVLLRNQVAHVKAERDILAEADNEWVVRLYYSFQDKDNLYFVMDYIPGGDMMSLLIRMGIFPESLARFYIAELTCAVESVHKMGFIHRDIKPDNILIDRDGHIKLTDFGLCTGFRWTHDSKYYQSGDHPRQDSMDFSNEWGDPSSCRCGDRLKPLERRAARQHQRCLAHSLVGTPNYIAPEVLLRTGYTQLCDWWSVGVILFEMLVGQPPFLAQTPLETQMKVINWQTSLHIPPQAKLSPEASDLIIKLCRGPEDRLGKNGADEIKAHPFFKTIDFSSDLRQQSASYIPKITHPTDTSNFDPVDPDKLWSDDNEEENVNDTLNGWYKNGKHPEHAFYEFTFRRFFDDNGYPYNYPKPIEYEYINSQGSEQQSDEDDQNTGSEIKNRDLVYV

PC-3 [2] = experiment: Cytostatic activity against human PC3 cells assessed as cell viability at concentration of greater than IC50 measured up to 72 hrs by MTT assay; format: functional, cell-based
[3] = target: T1, Serine/threonine-protein kinase LATS1 (Homo sapiens); experiment: Activation of LATS1 in triple-negative human SUM159 cells assessed as induction of YAP degradation by measuring suppression of YAP protein expression at 0.25 to 1 uM measured after 12 hrs by Western blot analysis
PC-3 [4] = experiment: Cytotoxicity against human PC3 cells assessed as reduction in cell viability measured after 72 hrs by MTT assay; format: functional, cell-based
[5] = target: T1, Serine/threonine-protein kinase LATS1 (Homo sapiens); experiment: Activation of LATS1 in human PC3 cells assessed as increase in YAP phosphorylation at Ser397 at 0.25 to 1.5 uM measured after 12 to 24 hrs by immunoblotting analysis; format: cell-based
MDA-MB-231 [6] = experiment: Cytostatic activity against human MDA-MB-231 cells assessed as cell viability at concentration of greater than IC50 measured up to 72 hrs by MTT assay; format: functional, cell-based
SUM-159-PT = experiment: Effect on MOB expression in human SUM159 cells at 0.25 to 1.5 uM measured after 12 hrs by Western blot analysis; format: functional, cell-based
MDA-MB-231 [7] = experiment: Cytotoxicity against human MDA-MB-231 cells assessed as reduction in cell viability measured after 72 hrs by MTT assay; format: functional, cell-based
[8] = target: T1, Serine/threonine-protein kinase LATS1 (Homo sapiens); experiment: Activation of LATS1 in human PC3 cells assessed as increase in YAP phosphorylation at Ser397 at 0.25 to 1.5 uM measured after 24 to 48 hrs by immunoblotting analysis; format: cell-based
[9] = target: T2, Serine/threonine-protein kinase 3/4 (Homo sapiens) (UniProt Q13043+Q13188); experiment: Activation of MST1/2 in human MDA-MB-231 cells assessed as effect on phosphorylation at T183/T180 residues at 0.25 to 1.5 uM measured after 24 hrs by Western blot analysis; format: cell-based
[10] = target: T1, Serine/threonine-protein kinase LATS1 (Homo sapiens); experiment: Activation of LATS1 in human PC9 cells assessed as induction of YAP degradation by measuring suppression of YAP protein expression at 0.25 to 1.5 uM measured after 12 to 24 hrs by immunoblotting analysis; format: cell-based
PC-3 [11] = experiment: Effect on MST2 expression in human PC3 cells at 0.25 to 1.5 uM measured after 24 hrs by Western blot analysis; format: functional, cell-based
Homo sapiens = species on record: Homo sapiens; experiment: Activation of MOB in human PC3 cells assessed as phosphorylation at Thr35 residue at 0.25 to 1.25 uM measured after 24 hrs by Western blot analysis; format: cell-based
[12] = target: T1, Serine/threonine-protein kinase LATS1 (Homo sapiens); experiment: Activation of LATS1 in human SUM159 cells assessed as increase in phosphorylation at Thr1079 residue measured after 12 hrs by Western blot analysis; format: cell-based
MDA-MB-231 [13] = experiment: Cytotoxicity against human MDA-MB-231 cells ectopically overexpressed with wild type FLAG-tagged YAP assessed as reduction in cell viability at 0.2 to 1.2 uM measured after 72 hrs by MTT assay; format: functional, cell-based
[14] = target: T1, Serine/threonine-protein kinase LATS1 (Homo sapiens); experiment: Activation of LATS1 in human SUM159 cells assessed as induction of YAP degradation by measuring suppression of YAP protein expression at 0.25 to 1.5 uM measured after 12 to 24 hrs by immunoblotting analysis; format: cell-based
[15] = target: T1, Serine/threonine-protein kinase LATS1 (Homo sapiens); experiment: Activation of LATS1 in triple-negative human SUM159 cells transfected with YAP/TAZ-TEAD reporter plasmid containing 8xGTIIC binding site and cotransfected with pCMV-Luc assessed as suppression of YAP/TAZ luciferase activity measured after 12 hrs by dual luciferase reporter assay
[16] = target: T1, Serine/threonine-protein kinase LATS1 (Homo sapiens); experiment: Activation of LATS1 in triple-negative human SUM159 cells assessed as induction of YAP degradation by measuring suppression of YAP protein expression at 0.25 to 1 uM measured after 12 hrs in presence of 10 uM proteosomal inhibitor, MG132 by Western blot analysis
[17] = target: T2, Serine/threonine-protein kinase 3/4 (Homo sapiens); experiment: Activation of MST1/2 in human PC3 cells assessed as effect on phosphorylation at T183/T180 residues at 0.25 to 1.5 uM measured after 24 hrs by Western blot analysis; format: cell-based
[18] = target: Hepatocyte growth factor receptor (Homo sapiens) (UniProt P08581); experiment: Induction of c-MET degradation in human MDA-MB-231 cells assessed as suppression of c-MET expression at 0.1 to 0.8 uM by Western blot analysis; format: cell-based
Hepatocyte growth factor receptor (Homo sapiens), sequence (P08581 whole entry): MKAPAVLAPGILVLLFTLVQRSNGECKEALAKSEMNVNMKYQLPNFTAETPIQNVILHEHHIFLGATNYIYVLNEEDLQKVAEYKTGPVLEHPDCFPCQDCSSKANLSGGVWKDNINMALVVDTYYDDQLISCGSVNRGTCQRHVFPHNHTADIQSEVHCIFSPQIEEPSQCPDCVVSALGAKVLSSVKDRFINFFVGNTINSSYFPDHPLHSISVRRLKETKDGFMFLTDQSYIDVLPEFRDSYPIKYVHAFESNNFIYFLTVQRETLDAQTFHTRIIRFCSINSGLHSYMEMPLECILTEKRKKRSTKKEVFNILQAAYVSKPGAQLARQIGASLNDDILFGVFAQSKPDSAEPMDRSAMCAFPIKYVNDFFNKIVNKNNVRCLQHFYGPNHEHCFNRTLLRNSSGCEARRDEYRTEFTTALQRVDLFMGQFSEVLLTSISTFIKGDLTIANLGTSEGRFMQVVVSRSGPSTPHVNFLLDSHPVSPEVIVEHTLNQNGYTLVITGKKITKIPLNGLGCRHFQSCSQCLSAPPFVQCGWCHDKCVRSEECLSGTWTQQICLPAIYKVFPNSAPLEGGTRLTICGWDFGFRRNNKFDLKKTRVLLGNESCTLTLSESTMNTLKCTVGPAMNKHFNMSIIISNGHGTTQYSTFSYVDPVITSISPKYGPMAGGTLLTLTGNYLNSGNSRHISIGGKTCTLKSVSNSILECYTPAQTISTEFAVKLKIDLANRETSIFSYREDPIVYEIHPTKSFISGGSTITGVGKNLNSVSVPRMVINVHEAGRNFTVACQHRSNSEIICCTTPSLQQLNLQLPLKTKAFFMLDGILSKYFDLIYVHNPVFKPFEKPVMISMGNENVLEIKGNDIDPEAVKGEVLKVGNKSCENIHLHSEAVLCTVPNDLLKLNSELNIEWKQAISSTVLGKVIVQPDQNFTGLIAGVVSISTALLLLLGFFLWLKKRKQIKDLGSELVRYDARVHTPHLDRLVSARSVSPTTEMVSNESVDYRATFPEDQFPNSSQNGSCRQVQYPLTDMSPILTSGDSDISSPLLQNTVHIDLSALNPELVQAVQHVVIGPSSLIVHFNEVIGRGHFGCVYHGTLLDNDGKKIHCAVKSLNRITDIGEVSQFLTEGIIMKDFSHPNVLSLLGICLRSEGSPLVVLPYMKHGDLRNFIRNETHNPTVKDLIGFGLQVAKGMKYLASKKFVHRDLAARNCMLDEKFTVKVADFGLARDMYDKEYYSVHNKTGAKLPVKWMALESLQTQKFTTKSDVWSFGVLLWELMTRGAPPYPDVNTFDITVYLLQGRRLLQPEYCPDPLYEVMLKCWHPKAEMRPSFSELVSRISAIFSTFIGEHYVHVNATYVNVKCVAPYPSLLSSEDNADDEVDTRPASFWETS

T2 sequence (Q13043 whole entry, looked up): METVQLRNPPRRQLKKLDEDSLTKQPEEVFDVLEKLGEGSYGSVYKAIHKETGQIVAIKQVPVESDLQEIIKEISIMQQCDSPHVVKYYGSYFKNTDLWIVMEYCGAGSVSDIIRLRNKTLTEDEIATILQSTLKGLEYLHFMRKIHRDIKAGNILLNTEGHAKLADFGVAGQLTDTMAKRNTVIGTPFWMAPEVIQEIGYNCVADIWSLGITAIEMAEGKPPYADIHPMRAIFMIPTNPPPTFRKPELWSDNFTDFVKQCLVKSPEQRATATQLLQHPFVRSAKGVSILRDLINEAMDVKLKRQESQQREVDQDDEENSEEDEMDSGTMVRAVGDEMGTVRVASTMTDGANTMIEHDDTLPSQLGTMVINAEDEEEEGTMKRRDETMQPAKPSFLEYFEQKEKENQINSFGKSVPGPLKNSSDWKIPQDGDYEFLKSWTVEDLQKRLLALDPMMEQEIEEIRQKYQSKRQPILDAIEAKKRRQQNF
T2 sequence (Q13188 whole entry, looked up): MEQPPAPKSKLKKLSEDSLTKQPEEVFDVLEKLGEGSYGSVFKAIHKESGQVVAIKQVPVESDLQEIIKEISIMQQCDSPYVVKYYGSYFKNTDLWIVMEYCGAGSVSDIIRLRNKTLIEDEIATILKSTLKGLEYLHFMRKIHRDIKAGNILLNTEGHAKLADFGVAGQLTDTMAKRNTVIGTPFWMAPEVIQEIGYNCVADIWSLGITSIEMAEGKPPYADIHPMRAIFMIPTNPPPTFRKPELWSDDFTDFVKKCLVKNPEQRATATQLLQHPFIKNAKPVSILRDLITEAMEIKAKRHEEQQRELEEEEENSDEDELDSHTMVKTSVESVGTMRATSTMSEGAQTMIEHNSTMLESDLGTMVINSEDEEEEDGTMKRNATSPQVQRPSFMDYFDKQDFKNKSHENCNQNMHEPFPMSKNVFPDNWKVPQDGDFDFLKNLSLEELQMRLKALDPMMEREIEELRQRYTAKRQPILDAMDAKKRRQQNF

CC(=O)Nc1ccc(NC(=O)Nc2cccc(-c3nc(-c4ccc(NC(=O)c5cccnc5)cc4Cl)no3)c2)cc1C(F)(F)F
Activity [1]: inactive
Activity (PC-3 [2]): Active
Activity [3]: Active
Activity (PC-3 [4]): Dose-dependent effect
IC50 (PC-3 [4]; PC-3, 72 h): 400 to 800 nM
Activity [5]: Active
Activity (MDA-MB-231 [6]): Active
Activity (SUM-159-PT): inactive
Activity (MDA-MB-231 [7]): Dose-dependent effect
IC50 (MDA-MB-231 [7]; MDA-MB-231, 72 h): 400 to 800 nM
Activity [8]: inactive
Activity [9]: inactive
Activity [10]: Active
Activity (PC-3 [11]): inactive
Activity (Homo sapiens): inactive
Activity [12]: Dose-dependent effect
Activity (MDA-MB-231 [13]): inactive
Activity [14]: Active
Activity [15]: Dose-dependent effect
Activity [16]: inactive
Activity [17]: inactive
Activity [18]: inactive

— ChEMBL document CHEMBL4342507, “Targeting YAP Degradation by a Novel 1,2,4-Oxadiazole Derivative via Restoration of the Function of the Hippo Pathway” (ACS Med Chem Lett, 2020)
